We go through 19 compounds from ChEMBL document CHEMBL1122363, “Synthesis and some pharmacological properties of oxytocin and vasopressin analogues with sarcosine or N-methyl-L-alanine in position 7” (1983).

Structures are written as SMILES. Activity calls are given as the source filed them. No cut-off for these calls is given here. Positions of bridges follow the written chain, without caps; N, C: chain ends. Non-standard residues stand in square brackets, D forms with d. Residues, ends and D or L forms follow the SMILES beside them. NMeA = CN[C@@H](C)C(=O)O; Mpa = O=C(O)CCS; Sar = CNCC(=O)O

The species entered for experiment [1] is Rattus norvegicus. The experiment in a line: Uterotonic activity in vitro in isolated rat uterus in absence of magnesium. In kind it is functional. Set-up: unit not given here.
The species named for experiment [2] is Rattus norvegicus. Kind of experiment: Uterotonic activity in vitro in isolated rat uterus in presence of magnesium. In kind it is functional.
The species named for experiment [3] is Rattus norvegicus. The experiment in a line: The compound was tested for milk ejection activity in rat. The experiment is classed as functional. Set-up: unit not given here.
The species entered for experiment [4] is Rattus norvegicus. Kind of experiment: Tested for antidiuretic activity in rat. The experiment is classed as functional, Urine. Set-up: unit not given here.
A short description of experiment [5]: Tested for the ratio of uterotonic potency to antidiuretic potency(O/A). In kind it is functional, Urine.
For experiment [6], the species on record is Rattus norvegicus. The experiment in a line: Tested for vasopressor activity in rat. In kind it is functional. Set-up: unit not given here.
Experiment [7] is filed under the species Rattus norvegicus. Kind of experiment: Tested for vasopressor activity in rat; N-None. The experiment is classed as functional, organism-based.
Experiment [8] is filed under the species Rattus norvegicus. Kind of experiment: Tested for vasopressor activity in rat;N-None. In kind it is functional, organism-based.
Experiment [9] can be described thus: Tested for the ratio of uterotonic potency to pressor potency(O/P). In kind it is functional.
Experiment [10] is described as follows: Tested for the ratio of antidiuretic potency to uterotonic potency(A/O). In kind it is functional, Urine.
Experiment [11] in a line: Tested for the ratio of antidiuretic potency to uterotonic potency(A/P). The experiment is classed as functional.

On to `CC[C@H](C)[C@@H]1NC(=O)[C@H](Cc2ccc(O)cc2)NC(=O)[C@@H](N)CSSC[C@@H](C(=O)N(C)[C@@H](C)C(=O)N[C@@H](CC(C)C)C(=O)NCC(N)=O)NC(=O)[C@H](CC(N)=O)NC(=O)[C@H](CCC(N)=O)NC1=O`, for which the Activity was found to be 62 in the experiment listed under Rattus norvegicus [1], 184 IU/mg in the experiment listed under Rattus norvegicus [2], 402 in the experiment listed under Rattus norvegicus [3] and 0.12 in the experiment filed under Rattus norvegicus [4]. Moreover, the Ratio in experiment [5] is recorded as 620.

For the compound `CC[C@H](C)[C@@H]1NC(=O)[C@H](Cc2ccc(O)cc2)NC(=O)[C@@H](N)CSSC[C@@H](C(=O)N[C@@H](C)C(=O)N[C@@H](CC(C)C)C(=O)NCC(N)=O)NC(=O)[C@H](CC(N)=O)NC(=O)[C@H](CCC(N)=O)NC1=O`, the figures for the Activity in the experiment filed under Rattus norvegicus [1], in the experiment listed under Rattus norvegicus [6] and in the experiment listed under Rattus norvegicus [4] were 22, 0.4 and 0.08, respectively. The Ratio in [5] was 275.

For the compound `CC[C@H](C)[C@@H]1NC(=O)[C@H](Cc2ccc(O)cc2)NC(=O)[C@@H](N)CSSC[C@@H](C(=O)NCC(=O)N[C@@H](CC(C)C)C(=O)NCC(N)=O)NC(=O)[C@H](CC(N)=O)NC(=O)[C@H](CCC(N)=O)NC1=O`, the Activity amounted to 93 in the experiment filed under Rattus norvegicus [1], 0.01 in the experiment listed under Rattus norvegicus [6], 392 in the experiment filed under Rattus norvegicus [3] and 0.0056 in the experiment filed under Rattus norvegicus [4]. Besides, the Ratio in experiment [5] is recorded as 16600.

Take `CC[C@H](C)[C@@H]1NC(=O)[C@H](Cc2ccc(O)cc2)NC(=O)CCSSC[C@@H](C(=O)N(C)CC(=O)N[C@@H](CC(C)C)C(=O)NCC(N)=O)NC(=O)[C@H](CC(N)=O)NC(=O)[C@H](CCC(N)=O)NC1=O`: the Activity in the experiment listed under Rattus norvegicus [1] amounted to 745; in the experiment filed under Rattus norvegicus [2], 1350 IU/mg; in the experiment filed under Rattus norvegicus [3] it was 498.

As for `CC[C@H](C)[C@@H]1NC(=O)[C@@H](Cc2ccc(O)cc2)NC(=O)CCSSC[C@@H](C(=O)N(C)CC(=O)N[C@@H](CC(C)C)C(=O)NCC(N)=O)NC(=O)[C@H](CC(N)=O)NC(=O)[C@@H](CCC(N)=O)NC1=O`, the result in the experiment filed under Rattus norvegicus [7] was inactive.

With `CC[C@H](C)[C@@H]1NC(=O)[C@@H](Cc2ccc(O)cc2)NC(=O)[C@H](N)CSSC[C@@H](C(=O)N(C)[C@@H](C)C(=O)N[C@@H](CC(C)C)C(=O)NCC(N)=O)NC(=O)[C@H](CC(N)=O)NC(=O)[C@@H](CCC(N)=O)NC1=O`, in the experiment filed under Rattus norvegicus [8], the outcome was inactive.

In the case of `CC[C@H](C)[C@@H]1NC(=O)[C@@H](Cc2ccc(O)cc2)NC(=O)[C@H](N)CSSC[C@@H](C(=O)NCC(=O)N[C@@H](CC(C)C)C(=O)NCC(N)=O)NC(=O)[C@H](CC(N)=O)NC(=O)[C@@H](CCC(N)=O)NC1=O`, in [9], the Ratio is 9300.

Regarding `CC[C@H](C)[C@@H]1NC(=O)[C@@H](Cc2ccc(O)cc2)NC(=O)[C@H](N)CSSC[C@@H](C(=O)N[C@@H](C)C(=O)N[C@@H](CC(C)C)C(=O)NCC(N)=O)NC(=O)[C@H](CC(N)=O)NC(=O)[C@@H](CCC(N)=O)NC1=O`, in [9], the Ratio amounted to 55.

Turning to `CC[C@H](C)[C@@H]1NC(=O)[C@H](Cc2ccc(O)cc2)NC(=O)CCSSC[C@H](C(=O)N2CCC[C@H]2C(=O)N[C@@H](CC(C)C)C(=O)NCC(N)=O)NC(=O)[C@H](CC(N)=O)NC(=O)[C@H](CCC(N)=O)NC1=O`, in experiment [9], the Ratio was 120.

As to `NC(=O)CC[C@@H]1NC(=O)[C@H](Cc2ccccc2)NC(=O)[C@H](Cc2ccc(O)cc2)NC(=O)[C@@H](N)CSSC[C@@H](C(=O)NCC(=O)N[C@@H](CCCN=C(N)N)C(=O)NCC(N)=O)NC(=O)[C@H](CC(N)=O)NC1=O` (H-CYFQNCGRG-NH2; disulfide 1-6), the values for the Activity in the experiment listed under Rattus norvegicus [2] and in the experiment filed under Rattus norvegicus [3] were 0.01 IU/mg and 0.1, respectively.

As for `C[C@@H](C(=O)N[C@@H](CCCN=C(N)N)C(=O)NCC(N)=O)N(C)C(=O)[C@@H]1CSSC[C@H](N)C(=O)N[C@@H](Cc2ccc(O)cc2)C(=O)N[C@@H](Cc2ccccc2)C(=O)N[C@@H](CCC(N)=O)C(=O)N[C@@H](CC(N)=O)C(=O)N1` (H-CYFQNC[NMeA]RG-NH2; disulfide 1-6), the Activity in the experiment filed under Rattus norvegicus [1] turned out to be 343; in the experiment filed under Rattus norvegicus [2], 10.6 IU/mg; in the experiment listed under Rattus norvegicus [6], 4.1; in the experiment listed under Rattus norvegicus [3], 2.8; in the experiment listed under Rattus norvegicus [4], 35. Also, the Ratio in [10] was determined as 122; in [11], 32.

For the compound `CN(CC(=O)N[C@@H](CCCN=C(N)N)C(=O)NCC(N)=O)C(=O)[C@@H]1CSSC[C@H](N)C(=O)N[C@@H](Cc2ccc(O)cc2)C(=O)N[C@@H](Cc2ccccc2)C(=O)N[C@@H](CCC(N)=O)C(=O)N[C@@H](CC(N)=O)C(=O)N1` (H-CYFQNC[Sar]RG-NH2; disulfide 1-6), the Activity in the experiment listed under Rattus norvegicus [1] worked out at 188; in the experiment filed under Rattus norvegicus [2], 3.6 IU/mg; in the experiment listed under Rattus norvegicus [6] it was 36; in the experiment listed under Rattus norvegicus [3] it was 9.3; in the experiment listed under Rattus norvegicus [4], 110. Also, the Ratio in experiment [10] is on record as 20; in [11], 52.

Take `CC[C@H](C)[C@@H]1NC(=O)[C@H](Cc2ccc(O)cc2)NC(=O)[C@@H](N)CSSC[C@@H](C(=O)N(C)CC(=O)N[C@@H](CC(C)C)C(=O)NCC(N)=O)NC(=O)[C@H](CC(N)=O)NC(=O)[C@H](CCC(N)=O)NC1=O` (H-CYIQNC[Sar]LG-NH2; disulfide 1-6): the Activity in the experiment filed under Rattus norvegicus [1] was 459; in the experiment filed under Rattus norvegicus [2], 609 IU/mg; in the experiment listed under Rattus norvegicus [3], 564; in the experiment filed under Rattus norvegicus [4], 0.18. In addition, in experiment [5], the Ratio amounted to 2550.

For `C[C@@H](C(=O)N[C@@H](CCCN=C(N)N)C(=O)NCC(N)=O)N(C)C(=O)[C@@H]1CSSCCC(=O)N[C@@H](Cc2ccc(O)cc2)C(=O)N[C@@H](Cc2ccccc2)C(=O)N[C@@H](CCC(N)=O)C(=O)N[C@@H](CC(N)=O)C(=O)N1` ([Mpa]YFQNC[NMeA]RG-NH2; disulfide 1-6), the Activity stood at 113 in the experiment listed under Rattus norvegicus [1]; 1.3 IU/mg in the experiment listed under Rattus norvegicus [2]; 8 in the experiment listed under Rattus norvegicus [6]; 1.7 in the experiment listed under Rattus norvegicus [3]; 35 in the experiment listed under Rattus norvegicus [4]. Besides, the Ratio is listed as 78 in experiment [10] and 102 in experiment [11].

As to `CN(CC(=O)N[C@@H](CCCN=C(N)N)C(=O)NCC(N)=O)C(=O)[C@@H]1CSSCCC(=O)N[C@@H](Cc2ccc(O)cc2)C(=O)N[C@@H](Cc2ccccc2)C(=O)N[C@@H](CCC(N)=O)C(=O)N[C@@H](CC(N)=O)C(=O)N1` ([Mpa]YFQNC[Sar]RG-NH2; disulfide 1-6), the Activity was determined as 580 in the experiment filed under Rattus norvegicus [1]; 0.84 IU/mg in the experiment listed under Rattus norvegicus [2]; 49 in the experiment filed under Rattus norvegicus [6]; 38.2 in the experiment listed under Rattus norvegicus [3]; 193 in the experiment filed under Rattus norvegicus [4]. For the same compound, the Ratio in experiment [10] came to 15; in experiment [11], 690.

Regarding `CC[C@H](C)[C@@H]1NC(=O)[C@H](Cc2ccc(O)cc2)NC(=O)CCSSC[C@@H](C(=O)N(C)[C@@H](C)C(=O)N[C@@H](CC(C)C)C(=O)NCC(N)=O)NC(=O)[C@H](CC(N)=O)NC(=O)[C@H](CCC(N)=O)NC1=O` ([Mpa]YIQNC[NMeA]LG-NH2; disulfide 1-6), the Activity in the experiment listed under Rattus norvegicus [1] was found to be 98; in the experiment listed under Rattus norvegicus [2], 274 IU/mg; in the experiment listed under Rattus norvegicus [3], 157.

Take `CC[C@H](C)[C@@H]1NC(=O)[C@H](Cc2ccc(O)cc2)NC(=O)CCSSC[C@@H](C(=O)N2CCC[C@H]2C(=O)N[C@@H](CC(C)C)C(=O)NCC(N)=O)NC(=O)[C@H](CC(N)=O)NC(=O)[C@H](CCC(N)=O)NC1=O` [DEMOXYTOCIN]: the Ratio in experiment [5] is 130.

On to `N=C(N)NCCC[C@H](NC(=O)[C@@H]1CCCN1C(=O)[C@@H]1CSSCCC(=O)N[C@@H](Cc2ccc(O)cc2)C(=O)N[C@@H](Cc2ccccc2)C(=O)N[C@@H](CCC(N)=O)C(=O)N[C@@H](CC(N)=O)C(=O)N1)C(=O)NCC(N)=O` [DESMOPRESSIN], for which the Activity in the experiment listed under Rattus norvegicus [2] worked out at 346 IU/mg. The Ratio in experiment [10] is given as 60; in [11], 5.

Consider `CC[C@H](C)[C@@H]1NC(=O)[C@H](Cc2ccc(O)cc2)NC(=O)[C@@H](N)CSSC[C@@H](C(=O)N2CCC[C@H]2C(=O)N[C@@H](CC(C)C)C(=O)NCC(N)=O)NC(=O)[C@H](CC(N)=O)NC(=O)[C@H](CCC(N)=O)NC1=O` [OXYTOCIN], for which the Activity in the experiment listed under Rattus norvegicus [2] is 486 IU/mg. The Ratio in [9] stood at 120.
